{"source": "paper PMC8073005", "about": "“Antifungal Activity and DNA Topoisomerase Inhibition of Hydrolysable Tannins from Punica granatum L” (International Journal of Molecular Sciences, 2021)", "key": {"Candida parapsilosis": {"test_system": "Candida parapsilosis", "assay": "MIC, broth microdilution (human pathogens)", "type": "cell-based", "details": "Lodderomyces parapsilosis, 48 h, read-out: Minimum inhibitory concentration (MIC)"}, "[1]": {"test_system": "Colletotrichum acutatum s.s. M146-2", "assay": "MIC, micro-spectrophotometric growth assay (phytopathogens)", "type": "cell-based, Colletotrichum acutatum sensu stricto"}, "Candida zeylanoides 33": {"test_system": "Candida zeylanoides 33", "assay": "MIC, broth microdilution (human pathogens)", "type": "cell-based", "details": "Dujonia zeylanoides, 33, 48 h, read-out: Minimum inhibitory concentration (MIC)"}, "[2]": {"biological_target": "T1, topoisomerase I from Candida albicans (Candida albicans, UniProt Q00313)", "T1 sequence (Q00313 1-778)": "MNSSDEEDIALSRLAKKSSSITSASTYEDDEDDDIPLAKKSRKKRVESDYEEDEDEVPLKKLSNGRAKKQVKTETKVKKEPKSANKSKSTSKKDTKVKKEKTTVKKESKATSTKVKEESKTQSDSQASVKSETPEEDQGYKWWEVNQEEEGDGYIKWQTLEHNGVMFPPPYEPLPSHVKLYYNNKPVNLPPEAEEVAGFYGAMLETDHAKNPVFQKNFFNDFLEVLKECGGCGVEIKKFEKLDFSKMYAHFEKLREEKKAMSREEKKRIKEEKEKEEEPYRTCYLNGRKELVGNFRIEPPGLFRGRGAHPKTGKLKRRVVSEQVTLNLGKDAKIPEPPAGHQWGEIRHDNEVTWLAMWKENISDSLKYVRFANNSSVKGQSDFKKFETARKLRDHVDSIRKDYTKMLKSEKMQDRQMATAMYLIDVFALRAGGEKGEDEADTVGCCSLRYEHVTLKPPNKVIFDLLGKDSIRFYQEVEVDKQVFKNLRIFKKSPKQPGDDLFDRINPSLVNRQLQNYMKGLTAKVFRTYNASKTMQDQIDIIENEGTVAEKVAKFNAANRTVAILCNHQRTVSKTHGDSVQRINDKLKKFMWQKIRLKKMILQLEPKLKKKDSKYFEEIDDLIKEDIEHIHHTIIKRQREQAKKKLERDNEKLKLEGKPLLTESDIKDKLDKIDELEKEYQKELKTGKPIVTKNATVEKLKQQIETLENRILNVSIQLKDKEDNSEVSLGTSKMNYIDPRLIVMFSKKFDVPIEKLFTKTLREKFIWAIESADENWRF", "assay": "Topoisomerase I supercoiled DNA relaxation inhibition", "type": "biochemical"}, "Candida parapsilosis 7": {"test_system": "Candida parapsilosis 7", "assay": "MIC, broth microdilution (human pathogens)", "type": "cell-based", "details": "Lodderomyces parapsilosis, 7, 48 h, read-out: Minimum inhibitory concentration (MIC)"}, "[3]": {"test_system": "Saccharomyces cerevisiae 42", "assay": "MIC, broth microdilution (human pathogens)", "type": "cell-based", "details": "Saccharomyces cerevisiae, 42, 48 h, read-out: Minimum inhibitory concentration (MIC)"}, "[4]": {"test_system": "C. albicans 1 (clinically isolated strain)", "assay": "Time-kill curves", "type": "cell-based, Candida albicans", "details": "compound at its MIC value, 0–96 h"}, "[5]": {"test_system": "Cryptococcus neoformans ATCC 11240", "assay": "MIC, broth microdilution (human pathogens)", "type": "cell-based", "details": "Cryptococcus neoformans, ATCC11240, 48 h, read-out: Minimum inhibitory concentration (MIC)"}, "Candida albicans 1": {"test_system": "Candida albicans 1", "assay": "MIC, broth microdilution (human pathogens)", "type": "cell-based", "details": "Candida albicans, 1, 48 h, read-out: Minimum inhibitory concentration (MIC)"}, "Botrytis cinerea B2": {"test_system": "Botrytis cinerea B2", "assay": "MIC, micro-spectrophotometric growth assay (phytopathogens)", "type": "cell-based", "details": "Botrytis cinerea B2; PDB, 24 °C, dark; imazalil at label dose; read-out: Minimum inhibitory concentration (MIC)"}, "Candida strains": {"test_system": "Candida strains", "assay": "Agar Disk Diffusion Assay, Candida strains", "type": "cell-based", "details": "100 µg"}, "Candida albicans H": {"test_system": "Candida albicans H", "assay": "MIC, broth microdilution (human pathogens)", "type": "cell-based", "details": "Candida albicans, 48 h, read-out: Minimum inhibitory concentration (MIC)"}, "[6]": {"test_system": "Alternaria alternata AL19", "assay": "MIC, micro-spectrophotometric growth assay (phytopathogens)", "type": "cell-based", "details": "Alternaria alternata AL19; PDB, 24 °C, dark; imazalil at label dose; read-out: Minimum inhibitory concentration (MIC)"}, "[7]": {"test_system": "other genera tested (other fungi strains)", "assay": "Agar Disk Diffusion Assay, other genera", "type": "cell-based", "details": "100 µg", "experimental": "The antifungal activity of pomegranate compounds was evaluated against 19 clinically isolated fungal strains, including nine belonging to Candida albicans species, two belonging to Aspergillus genus, one belonging to Cryptococcus genus, and one Saccharomyces cerevisiae. The C. albicans strains were isolated on CHROMID agar, Aspergillus and Cryptococcus genus were isolated on SDA-CAF and one Saccharomyces cerevisiae on SDA. All the isolates were confirmed by matrix-assisted laser desorption ionization (MALDI) time-of-flight mass spectrometry (TOF/MS). Strains from the American Type Culture Collection (ATCC) were included. All strains were maintained in SDB with 20% (w/v) glycerol at −80 °C until use and sub-cultured in SDA before each test.\nThe preliminary determination of the antifungal activity of the target compounds (punicalagin, punicalin, ellagic acid, and gallic acid) from pomegranate was carried out by means of the agar disk diffusion assay, according to the standard procedure of the Clinical and Laboratory Standards Institute, with slight modifications. Plates containing SDA were uniformly spread with 100 μL of 10^3 conidia/mL of each strain suspension. […] Disks containing fluconazole (25 μg), amphotericin B (25 μg) and DMSO (20 μL) were used as the positive and the negative control, respectively. The antifungal activity of pomegranate compounds was evaluated by measuring the diameter of the clear inhibition zone formed right around the disks after 48 h incubation at 30 ± 1 °C. The experiment was carried out in triplicate."}, "[8]": {"test_system": "Cryptococcus neoformans B 3501", "assay": "MIC, broth microdilution (human pathogens)", "type": "cell-based", "details": "Cryptococcus neoformans, B3501, 48 h, read-out: Minimum inhibitory concentration (MIC)"}, "Aspergillus candidus 25": {"test_system": "Aspergillus candidus 25", "assay": "MIC, broth microdilution (human pathogens)", "type": "cell-based", "details": "Aspergillus candidus, 25, 48 h, read-out: Minimum inhibitory concentration (MIC)"}, "Candida albicans SC 5314 [9]": {"test_system": "Candida albicans SC 5314", "assay": "Time-kill curves", "type": "cell-based", "details": "C. albicans SC 5314; compound at its MIC value; 0–96 h"}, "Candida albicans 2": {"test_system": "Candida albicans 2", "assay": "MIC, broth microdilution (human pathogens)", "type": "cell-based", "details": "Candida albicans, 2, 48 h, read-out: Minimum inhibitory concentration (MIC)"}, "Aspergillus candidus 3": {"test_system": "Aspergillus candidus 3", "assay": "MIC, broth microdilution (human pathogens)", "type": "cell-based", "details": "Aspergillus candidus, 3, 48 h, read-out: Minimum inhibitory concentration (MIC)"}, "Candida albicans SC 5314 [10]": {"test_system": "Candida albicans SC 5314", "assay": "MIC, broth microdilution (human pathogens)", "type": "cell-based", "details": "Candida albicans, SC5314, 48 h, read-out: Minimum inhibitory concentration (MIC)"}, "[11]": {"test_system": "Cryptococcus var. grubii H99 serotype A", "assay": "MIC, broth microdilution (human pathogens)", "type": "cell-based", "details": "Cryptococcus, 48 h, read-out: Minimum inhibitory concentration (MIC)"}, "Candida albicans 41": {"test_system": "Candida albicans 41", "assay": "MIC, broth microdilution (human pathogens)", "type": "cell-based", "details": "Candida albicans, 41, 48 h, read-out: Minimum inhibitory concentration (MIC)"}, "[12]": {"test_system": "Candida albicans ATCC 10321", "assay": "MIC, broth microdilution (human pathogens)", "type": "cell-based", "details": "Candida albicans, ATCC10321, 48 h, read-out: Minimum inhibitory concentration (MIC)"}, "Coniella granati M0_C2": {"test_system": "Coniella granati M0_C2", "assay": "MIC, micro-spectrophotometric growth assay (phytopathogens)", "type": "cell-based"}, "Candida albicans 44": {"test_system": "Candida albicans 44", "assay": "MIC, broth microdilution (human pathogens)", "type": "cell-based", "details": "Candida albicans, 44, 48 h, read-out: Minimum inhibitory concentration (MIC)"}, "Candida albicans 40": {"test_system": "Candida albicans 40", "assay": "MIC, broth microdilution (human pathogens)", "type": "cell-based", "details": "Candida albicans, 40, 48 h, read-out: Minimum inhibitory concentration (MIC)"}, "Cryptococcus 67": {"test_system": "Cryptococcus 67", "assay": "MIC, broth microdilution (human pathogens)", "type": "cell-based", "details": "Cryptococcus, 67, 48 h, read-out: Minimum inhibitory concentration (MIC)"}, "[13]": {"test_system": "Aspergillus brasiliensis ATCC 16404", "assay": "MIC, broth microdilution (human pathogens)", "type": "cell-based", "details": "Aspergillus brasiliensis, ATCC16404, 48 h, read-out: Minimum inhibitory concentration (MIC)"}, "DNA topoisomerase I": {"biological_target": "DNA topoisomerase I", "design": "method as in PMID 1324981", "details": "reported; cited from earlier work"}}, "data": [{"molecule": "O=C1O[C@H]2[C@@H]3OC(=O)c4cc(O)c(O)c(O)c4-c4c(O)c(O)c5oc(=O)c6c(c(O)c(O)c7oc(=O)c4c5c76)-c4c(cc(O)c(O)c4O)C(=O)OC[C@H]3OC(O)[C@@H]2OC(=O)c2cc(O)c(O)c(O)c2-c2c1cc(O)c(O)c2O", "note": "(mixture of isomers) [Punicalagin, punicalagin]", "values": [{"measurement": "MIC", "setting": "Candida parapsilosis", "result": 0.7, "unit": "µM"}, {"measurement": "growth reduction", "setting": "[1]; C. acutatum s.s., at 48 h", "result": 66, "unit": "%"}, {"measurement": "MIC", "setting": "[1]; Colletotrichum acutatum s.s. M146-2, PDB, 24 °C, dark, imazalil at label dose, read-out: Minimum inhibitory concentration (MIC)", "result": 184.4, "unit": "µM"}, {"measurement": "MIC", "setting": "Candida zeylanoides 33", "result": 92.2, "unit": "µM"}, {"measurement": "IC50", "setting": "[2]", "result": "9 ± 1.2", "unit": "µM"}, {"measurement": "MIC", "setting": "Candida parapsilosis 7", "result": 5.5, "unit": "µM"}, {"measurement": "MIC", "setting": "[3]", "result": 1.4, "unit": "µM"}, {"measurement": "time-kill curve (susceptibility time-course)", "setting": "[4]", "result": "preserved the antifungal activity until the end of the test (96 h)"}, {"measurement": "MIC", "setting": "[5]", "result": 23, "unit": "µM"}, {"measurement": "MIC", "setting": "Candida albicans 1", "result": 1.4, "unit": "µM"}, {"measurement": "MIC", "setting": "Botrytis cinerea B2", "result": 92.2, "unit": "µM"}, {"measurement": "share of Candida strains with inhibition zone from 21 to 30 mm", "setting": "Candida strains", "result": 82, "unit": "%"}, {"measurement": "MIC", "setting": "Candida albicans H", "result": 92.2, "unit": "µM"}, {"measurement": "MIC", "setting": "[6]", "result": 92.2, "unit": "µM"}, {"measurement": "share of other genera tested with inhibition zone from 21 to 30 mm", "setting": "[7]", "result": 63, "unit": "%"}, {"measurement": "MIC", "setting": "[8]", "result": 46.1, "unit": "µM"}, {"measurement": "MIC", "setting": "Aspergillus candidus 25", "result": 92.2, "unit": "µM"}, {"measurement": "time-kill curve (susceptibility time-course)", "setting": "Candida albicans SC 5314 [9]", "result": "major reduction in the number of C. albicans SC 5314 cells"}, {"measurement": "MIC", "setting": "Candida albicans 2", "result": 1.4, "unit": "µM"}, {"measurement": "MIC", "setting": "Aspergillus candidus 3", "result": 92.2, "unit": "µM"}, {"measurement": "MIC", "setting": "Candida albicans SC 5314 [10]", "result": 0.7, "unit": "µM"}, {"measurement": "MIC", "setting": "[11]", "result": 92.2, "unit": "µM"}, {"measurement": "MIC", "setting": "Candida albicans 41", "result": 92.2, "unit": "µM"}, {"measurement": "MIC", "setting": "[12]", "result": 0.7, "unit": "µM"}, {"measurement": "growth reduction", "setting": "Coniella granati M0_C2; C. granati, 48 h of incubation", "result": 83, "unit": "%"}, {"measurement": "MIC", "setting": "Coniella granati M0_C2; Coniella granati M0_C2, PDB, 24 °C, dark, imazalil at label dose, read-out: Minimum inhibitory concentration (MIC)", "result": 184.4, "unit": "µM"}, {"measurement": "MIC", "setting": "Candida albicans 44", "result": 92.2, "unit": "µM"}, {"measurement": "MIC", "setting": "Candida albicans 40", "result": 5.5, "unit": "µM"}, {"measurement": "MIC", "setting": "Cryptococcus 67", "result": 92.2, "unit": "µM"}, {"measurement": "MIC", "setting": "[13]", "result": 2.8, "unit": "µM"}]}, {"molecule": "O=C(O)C[C@@H]1C(=O)O[C@H]2[C@@H]3OC(=O)c4cc(O)c(O)c(O)c4-c4c(cc(O)c(O)c4O)C(=O)OC[C@H]2O[C@@H](OC(=O)c2cc(O)c(O)c(O)c2)[C@@H]3OC(=O)c2cc(O)c(O)c3c2[C@H]1[C@H](O)C(=O)O3", "note": "[CHEMBL525240, Chebulagic acid]", "values": [{"measurement": "IC50", "setting": "DNA topoisomerase I", "result": 0.05, "unit": "µM"}]}]}
